Reference: patent publication US12435059B2, “AMP-activated protein kinase inhibitors and methods of making and using the same” (The Regents of the University of Colorado, priority 2019, dated 2025)
Read-outs that look alike come from different tables or passages of the source.

How the values were obtained:
468 kinases [1] = target: 468 kinases (Homo sapiens, UniProt P00519, H396P); experiment: biochemical; assay type: binding; conditions: read-out: % Inhibition @ 100 nM
468 kinases [2] = target: 468 kinases (Homo sapiens, UniProt P21709); experiment: biochemical; assay type: binding; conditions: EPHA1; read-out: % Inhibition @ 100 nM
468 kinases [3] = target: 468 kinases (Homo sapiens, UniProt P31749); experiment: biochemical; assay type: binding; conditions: AKT1; read-out: % Inhibition @ 100 nM
468 kinases [4] = target: 468 kinases (Homo sapiens, UniProt P49761); experiment: biochemical; assay type: binding; conditions: CLK3; read-out: % Inhibition @ 100 nM
468 kinases [5] = target: 468 kinases (Homo sapiens, UniProt Q05397); experiment: biochemical; assay type: binding; conditions: FAK; read-out: % Inhibition @ 100 nM
468 kinases [6] = target: 468 kinases (Homo sapiens, UniProt Q05655); experiment: biochemical; assay type: binding; conditions: PRKCD; read-out: % Inhibition @ 100 nM
468 kinases [7] = target: 468 kinases (Homo sapiens, UniProt Q06418); experiment: biochemical; assay type: binding; conditions: TYRO3; read-out: % Inhibition @ 100 nM
468 kinases [8] = target: 468 kinases (Homo sapiens, UniProt Q13163); experiment: biochemical; assay type: binding; conditions: MEK5; read-out: % Inhibition @ 100 nM
468 kinases [9] = target: 468 kinases (Homo sapiens, UniProt Q13188); experiment: biochemical; assay type: binding; conditions: MST2; read-out: % Inhibition @ 100 nM
468 kinases [10] = target: 468 kinases (Homo sapiens, UniProt Q13882); experiment: biochemical; assay type: binding; conditions: BRK; read-out: % Inhibition @ 100 nM
468 kinases [11] = target: 468 kinases (Homo sapiens, UniProt Q13976); experiment: biochemical; assay type: binding; conditions: PRKG1; read-out: % Inhibition @ 100 nM
468 kinases [12] = target: 468 kinases (Homo sapiens, UniProt Q16512); experiment: biochemical; assay type: binding; conditions: PKN1; read-out: % Inhibition @ 100 nM
468 kinases [13] = target: 468 kinases (Homo sapiens, UniProt Q59H18); experiment: biochemical; assay type: binding; conditions: TNNI3K; read-out: % Inhibition @ 100 nM
468 kinases [14] = target: 468 kinases (Homo sapiens, UniProt Q6P2M8); experiment: biochemical; assay type: binding; conditions: CAMK1B; read-out: % Inhibition @ 100 nM
468 kinases [15] = target: 468 kinases (Homo sapiens, UniProt Q86YV6); experiment: biochemical; assay type: binding; conditions: MYLK4; read-out: % Inhibition @ 100 nM
468 kinases [16] = target: 468 kinases (Homo sapiens, UniProt Q8NI60); experiment: biochemical; assay type: binding; conditions: ADCK3; read-out: % Inhibition @ 100 nM
468 kinases [17] = target: 468 kinases (Homo sapiens, UniProt Q8TDX7); experiment: biochemical; assay type: binding; conditions: NEK7; read-out: % Inhibition @ 100 nM
468 kinases [18] = target: 468 kinases (Homo sapiens, UniProt Q9BQI3); experiment: biochemical; assay type: binding; conditions: EIF2AK1; read-out: % Inhibition @ 100 nM
468 kinases [19] = target: 468 kinases (Homo sapiens, UniProt Q9BWU1); experiment: biochemical; assay type: binding; conditions: CDK11; read-out: % Inhibition @ 100 nM
468 kinases [20] = target: 468 kinases (Homo sapiens, UniProt Q9C098); experiment: biochemical; assay type: binding; conditions: DCAMKL3; read-out: % Inhibition @ 100 nM
468 kinases [21] = target: 468 kinases (Homo sapiens, UniProt Q9H2G2); experiment: biochemical; assay type: binding; conditions: SLK; read-out: % Inhibition @ 100 nM
468 kinases [22] = target: 468 kinases (Homo sapiens, UniProt Q9H422); experiment: biochemical; assay type: binding; conditions: HIPK3; read-out: % Inhibition @ 100 nM
468 kinases [23] = target: 468 kinases (Homo sapiens, UniProt Q9UEW8); experiment: biochemical; assay type: binding; conditions: STK39; read-out: % Inhibition @ 100 nM
468 kinases [24] = target: 468 kinases (Homo sapiens, UniProt Q9Y5S2); experiment: biochemical; assay type: binding; conditions: MRCKB; read-out: % Inhibition @ 100 nM
468 kinases [25] = target: 468 kinases (Homo sapiens, UniProt Q9Y6R4); experiment: biochemical; assay type: binding; conditions: MAP3K4; read-out: % Inhibition @ 100 nM
CSF1R-autoinhibited = CSF1R-autoinhibited (Homo sapiens (Human), UniProt P07333); experiment: Kinome binding analysis at 100 nM, CSF1R-autoinhibited; conditions: read-out: Percentage inhibition at 100 nM, CSF1R-autoinhibited
[26] = target: JAK1-JH2 domain pseudokinase (Homo sapiens (Human), UniProt P23458); experiment: Kinome binding analysis at 100 nM, JAK1 JH2 pseudokinase; conditions: read-out: Percentage inhibition at 100 nM, JAKI JH2-pseudokinase
468 kinases [27] = target: 468 kinases (Homo sapiens, UniProt P00519, E255K); experiment: biochemical; assay type: binding; conditions: ABL1 (E255K)-phosphorylated; read-out: % Inhibition @ 100 nM
468 kinases [28] = target: 468 kinases (Homo sapiens, UniProt P08581); experiment: biochemical; assay type: binding; conditions: MET; read-out: % Inhibition @ 100 nM
468 kinases [29] = target: 468 kinases (Homo sapiens, UniProt P19784); experiment: biochemical; assay type: binding; conditions: CSNK2A2; read-out: % Inhibition @ 100 nM
468 kinases [30] = target: 468 kinases (Homo sapiens, UniProt Q8IVH8); experiment: biochemical; assay type: binding; conditions: MAP4K3; read-out: % Inhibition @ 100 nM
468 kinases [31] = target: 468 kinases (Homo sapiens, UniProt Q9H4A3); experiment: biochemical; assay type: binding; conditions: WNK1; read-out: % Inhibition @ 100 nM
FLT1 = FLT1 (Homo sapiens (Human), UniProt P17948); experiment: Kinome binding analysis at 100 nM, FLT1; conditions: read-out: Percentage inhibition at 100 nM, FLT1

468 kinases (Homo sapiens, UniProt Q05397), sequence (Q05397 2-1052 limits assumed): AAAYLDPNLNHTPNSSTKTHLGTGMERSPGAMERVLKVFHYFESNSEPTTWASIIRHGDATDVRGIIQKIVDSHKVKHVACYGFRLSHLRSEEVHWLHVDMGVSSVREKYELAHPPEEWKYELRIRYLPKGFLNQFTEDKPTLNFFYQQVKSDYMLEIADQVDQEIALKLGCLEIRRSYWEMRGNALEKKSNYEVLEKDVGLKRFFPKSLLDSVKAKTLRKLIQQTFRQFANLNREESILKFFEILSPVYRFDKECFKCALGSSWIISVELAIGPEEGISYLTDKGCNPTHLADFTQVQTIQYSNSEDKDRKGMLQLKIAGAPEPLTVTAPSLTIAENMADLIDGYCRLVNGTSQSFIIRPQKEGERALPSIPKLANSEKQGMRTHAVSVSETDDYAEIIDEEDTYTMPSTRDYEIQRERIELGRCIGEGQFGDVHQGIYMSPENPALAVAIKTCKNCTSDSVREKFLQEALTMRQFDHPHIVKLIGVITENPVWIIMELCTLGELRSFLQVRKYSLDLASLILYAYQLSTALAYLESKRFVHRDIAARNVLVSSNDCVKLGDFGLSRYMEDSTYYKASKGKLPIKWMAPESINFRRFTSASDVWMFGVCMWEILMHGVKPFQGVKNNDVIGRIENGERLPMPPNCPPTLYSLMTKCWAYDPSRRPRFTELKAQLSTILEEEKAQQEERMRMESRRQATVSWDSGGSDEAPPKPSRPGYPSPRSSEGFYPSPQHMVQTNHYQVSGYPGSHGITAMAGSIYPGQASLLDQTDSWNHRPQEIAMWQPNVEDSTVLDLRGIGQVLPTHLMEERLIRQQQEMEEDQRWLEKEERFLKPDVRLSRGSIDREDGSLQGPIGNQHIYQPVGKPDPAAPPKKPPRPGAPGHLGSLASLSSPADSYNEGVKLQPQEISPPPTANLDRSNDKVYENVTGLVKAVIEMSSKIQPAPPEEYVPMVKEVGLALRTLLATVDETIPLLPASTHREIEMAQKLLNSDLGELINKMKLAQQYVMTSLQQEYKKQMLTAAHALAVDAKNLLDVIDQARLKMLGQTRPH
JAK1-JH2 domain pseudokinase, sequence (P23458 583-855): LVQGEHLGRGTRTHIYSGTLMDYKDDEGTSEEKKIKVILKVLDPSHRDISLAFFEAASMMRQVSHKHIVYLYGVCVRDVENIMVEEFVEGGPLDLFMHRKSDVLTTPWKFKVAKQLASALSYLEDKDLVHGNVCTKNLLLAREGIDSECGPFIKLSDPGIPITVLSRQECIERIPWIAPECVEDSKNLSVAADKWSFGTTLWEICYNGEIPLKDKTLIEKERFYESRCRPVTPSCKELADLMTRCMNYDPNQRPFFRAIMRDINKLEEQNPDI
468 kinases (Homo sapiens, UniProt Q8NI60), sequence (Q8NI60 163-647 limits assumed): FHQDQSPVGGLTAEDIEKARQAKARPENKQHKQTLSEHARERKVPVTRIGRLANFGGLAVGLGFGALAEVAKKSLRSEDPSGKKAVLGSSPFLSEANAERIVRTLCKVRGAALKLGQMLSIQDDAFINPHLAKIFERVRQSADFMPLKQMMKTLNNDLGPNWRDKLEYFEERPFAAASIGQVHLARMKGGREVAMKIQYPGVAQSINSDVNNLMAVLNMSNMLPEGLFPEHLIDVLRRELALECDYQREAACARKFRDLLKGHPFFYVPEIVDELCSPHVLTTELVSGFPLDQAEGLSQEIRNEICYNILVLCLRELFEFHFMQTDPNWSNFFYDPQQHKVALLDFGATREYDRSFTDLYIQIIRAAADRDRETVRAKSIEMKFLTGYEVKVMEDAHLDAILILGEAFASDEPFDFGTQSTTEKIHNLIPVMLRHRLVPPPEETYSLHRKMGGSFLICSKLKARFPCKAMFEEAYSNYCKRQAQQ
468 kinases (Homo sapiens, UniProt Q06418), sequence (Q06418 41-890 limits assumed): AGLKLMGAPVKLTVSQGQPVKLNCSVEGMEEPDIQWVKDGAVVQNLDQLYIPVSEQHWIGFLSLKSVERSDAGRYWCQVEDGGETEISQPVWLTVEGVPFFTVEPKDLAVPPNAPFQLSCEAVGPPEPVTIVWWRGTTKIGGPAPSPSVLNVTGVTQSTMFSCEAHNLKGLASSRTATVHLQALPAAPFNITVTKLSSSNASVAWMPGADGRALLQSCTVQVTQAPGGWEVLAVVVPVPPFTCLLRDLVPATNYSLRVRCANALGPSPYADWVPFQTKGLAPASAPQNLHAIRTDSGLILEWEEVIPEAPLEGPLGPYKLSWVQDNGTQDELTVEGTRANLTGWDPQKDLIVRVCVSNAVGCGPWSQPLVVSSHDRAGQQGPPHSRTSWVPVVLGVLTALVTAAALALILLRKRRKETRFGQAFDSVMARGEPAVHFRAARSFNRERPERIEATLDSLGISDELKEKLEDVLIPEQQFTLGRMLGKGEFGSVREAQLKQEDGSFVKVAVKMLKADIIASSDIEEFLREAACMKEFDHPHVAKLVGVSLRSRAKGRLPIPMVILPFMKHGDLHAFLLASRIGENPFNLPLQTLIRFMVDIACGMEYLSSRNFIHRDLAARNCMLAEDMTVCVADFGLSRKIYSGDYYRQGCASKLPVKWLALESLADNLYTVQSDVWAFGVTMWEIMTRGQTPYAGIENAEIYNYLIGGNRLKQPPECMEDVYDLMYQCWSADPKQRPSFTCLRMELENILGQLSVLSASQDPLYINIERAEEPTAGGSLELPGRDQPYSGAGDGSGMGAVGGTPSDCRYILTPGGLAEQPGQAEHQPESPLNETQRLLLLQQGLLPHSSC
468 kinases (Homo sapiens, UniProt P21709), sequence (P21709 26-976 limits assumed): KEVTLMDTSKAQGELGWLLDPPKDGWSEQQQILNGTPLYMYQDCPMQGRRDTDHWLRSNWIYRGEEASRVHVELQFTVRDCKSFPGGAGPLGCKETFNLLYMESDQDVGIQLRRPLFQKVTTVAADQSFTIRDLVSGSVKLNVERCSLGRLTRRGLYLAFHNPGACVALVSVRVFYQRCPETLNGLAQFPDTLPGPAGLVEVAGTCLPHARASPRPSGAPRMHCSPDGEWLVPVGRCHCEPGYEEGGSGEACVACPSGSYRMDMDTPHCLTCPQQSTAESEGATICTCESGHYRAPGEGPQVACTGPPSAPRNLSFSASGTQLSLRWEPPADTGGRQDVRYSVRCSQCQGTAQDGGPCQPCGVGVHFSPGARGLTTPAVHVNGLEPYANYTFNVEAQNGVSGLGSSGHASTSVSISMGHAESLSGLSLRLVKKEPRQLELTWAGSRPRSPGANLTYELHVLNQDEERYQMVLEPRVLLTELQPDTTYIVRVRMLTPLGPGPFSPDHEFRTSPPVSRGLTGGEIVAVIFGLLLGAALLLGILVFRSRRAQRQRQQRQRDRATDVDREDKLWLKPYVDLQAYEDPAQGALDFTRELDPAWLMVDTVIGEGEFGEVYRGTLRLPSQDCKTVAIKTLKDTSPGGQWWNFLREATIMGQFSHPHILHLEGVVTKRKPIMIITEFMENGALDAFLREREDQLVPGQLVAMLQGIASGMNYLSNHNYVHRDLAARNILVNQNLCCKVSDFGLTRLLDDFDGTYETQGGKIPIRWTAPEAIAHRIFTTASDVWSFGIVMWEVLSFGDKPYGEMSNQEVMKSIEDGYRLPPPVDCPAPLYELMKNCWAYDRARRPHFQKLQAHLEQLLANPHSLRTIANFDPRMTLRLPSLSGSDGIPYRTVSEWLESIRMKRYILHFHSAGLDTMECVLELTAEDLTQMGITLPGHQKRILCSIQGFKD
468 kinases (Homo sapiens, UniProt Q13976), sequence (Q13976 2-671 limits assumed): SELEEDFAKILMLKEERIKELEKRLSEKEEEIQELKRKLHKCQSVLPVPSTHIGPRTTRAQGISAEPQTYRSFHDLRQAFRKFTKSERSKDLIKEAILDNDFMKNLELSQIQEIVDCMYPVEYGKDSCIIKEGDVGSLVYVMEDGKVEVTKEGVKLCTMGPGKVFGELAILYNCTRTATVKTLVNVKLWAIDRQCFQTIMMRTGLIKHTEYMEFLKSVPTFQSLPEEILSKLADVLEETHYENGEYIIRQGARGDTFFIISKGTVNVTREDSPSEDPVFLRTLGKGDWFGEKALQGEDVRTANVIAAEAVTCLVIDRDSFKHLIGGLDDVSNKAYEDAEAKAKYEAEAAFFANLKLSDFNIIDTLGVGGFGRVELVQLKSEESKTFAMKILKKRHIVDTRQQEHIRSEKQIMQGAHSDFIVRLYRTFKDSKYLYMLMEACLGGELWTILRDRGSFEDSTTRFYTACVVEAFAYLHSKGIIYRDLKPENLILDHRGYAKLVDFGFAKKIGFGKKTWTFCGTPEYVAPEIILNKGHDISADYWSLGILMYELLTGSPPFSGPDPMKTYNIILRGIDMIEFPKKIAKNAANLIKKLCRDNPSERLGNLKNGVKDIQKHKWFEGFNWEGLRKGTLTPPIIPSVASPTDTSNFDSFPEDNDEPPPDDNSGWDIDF
CSF1R-autoinhibited, sequence (P07333 539-972): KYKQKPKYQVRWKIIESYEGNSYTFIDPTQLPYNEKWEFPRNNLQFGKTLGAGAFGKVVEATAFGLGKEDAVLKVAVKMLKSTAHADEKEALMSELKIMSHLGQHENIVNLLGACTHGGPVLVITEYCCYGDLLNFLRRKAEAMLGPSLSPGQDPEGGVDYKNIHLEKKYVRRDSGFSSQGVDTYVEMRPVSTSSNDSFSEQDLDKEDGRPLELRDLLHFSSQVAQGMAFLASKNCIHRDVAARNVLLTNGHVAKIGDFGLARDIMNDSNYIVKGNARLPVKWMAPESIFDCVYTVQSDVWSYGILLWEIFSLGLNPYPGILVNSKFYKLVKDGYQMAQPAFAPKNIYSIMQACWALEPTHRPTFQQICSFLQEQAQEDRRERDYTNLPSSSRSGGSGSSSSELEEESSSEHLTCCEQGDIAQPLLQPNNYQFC

Work on `CCN(CC)CCNC(=O)c1c(C)[nH]c(/C=C2\C(=O)Nc3ccc(CCC(N)=O)cc32)c1C` [Compound No. 16, (Z)-5-((5-(3-Amino-3-oxopropyl)-2-oxoindolin-3-ylidene)methyl)-N-(2-(diethylamino)ethyl)-2,4-dimethyl-1H-pyrrole-3-carboxamide] yielded an inhibition at 0.1 µM (468 kinases [1]; ABL1 (H396P)-nonphosphorylated) of 66%, an inhibition at 0.1 µM (468 kinases [2]) of 0% and an inhibition at 0.1 µM (468 kinases [3]) of 0%. For the same molecule, the inhibition at 0.1 µM (468 kinases [4]) was 10%, the inhibition at 0.1 µM (468 kinases [5]) was 100% and the inhibition at 0.1 µM (468 kinases [6]) was 9%. It also gave an inhibition at 0.1 µM (468 kinases [7]) of 2.1%, an inhibition at 0.1 µM (468 kinases [8]) of 80% and an inhibition at 0.1 µM (468 kinases [9]) of 41%. It also gave an inhibition at 0.1 µM (468 kinases [10]) of 1%, an inhibition at 0.1 µM (468 kinases [11]) of 14% and an inhibition at 0.1 µM (468 kinases [12]) of 24%. The inhibition at 0.1 µM (468 kinases [13]) was 5%, the inhibition at 0.1 µM (468 kinases [14]) was 30% and the inhibition at 0.1 µM (468 kinases [15]) was 24%. It also gave an inhibition at 0.1 µM (468 kinases [16]) of 8%, an inhibition at 0.1 µM (468 kinases [17]) of 5% and an inhibition at 0.1 µM (468 kinases [18]) of 42%. It also gave an inhibition at 0.1 µM (468 kinases [19]) of 3%, an inhibition at 0.1 µM (468 kinases [20]) of 88% and an inhibition at 0.1 µM (468 kinases [21]) of 37%. It also gave an inhibition at 0.1 µM (468 kinases [22]) of 95.3%, an inhibition at 0.1 µM (468 kinases [23]) of 12% and an inhibition at 0.1 µM (468 kinases [24]) of 15%. For the same molecule, the inhibition at 0.1 µM (468 kinases [25]) was 8%, the inhibition at 0.1 µM (CSF1R-autoinhibited) was 14% and the inhibition at 0.1 µM [26] was 41%.
With `CCN(CC)CCNC(=O)c1c(C)[nH]c(/C=C2\C(=O)Nc3ccc(CCO)cc32)c1C` [Compound No. 10, (Z)—N-(2-(Diethylamino)ethyl)-5-((5-(2-hydroxyethyl)-2-oxoindolin-3-ylidene)methyl)-2,4-dimethyl-1H-pyrrole-3-carboxamide] the inhibition at 0.1 µM (468 kinases [27]) was 35%, the inhibition at 0.1 µM (468 kinases [1]; ABL1 (H396P)-nonphosphorylated) was 57% and the inhibition at 0.1 µM (468 kinases [1]; ABL1 (H396P)-phosphorylated) was 6%. The inhibition at 0.1 µM (468 kinases [28]) was 13%, the inhibition at 0.1 µM (468 kinases [29]) was 0% and the inhibition at 0.1 µM (468 kinases [2]) was 0%. For the same molecule, the inhibition at 0.1 µM (468 kinases [4]) was 5%, the inhibition at 0.1 µM (468 kinases [5]) was 8% and the inhibition at 0.1 µM (468 kinases [6]) was 16%. The inhibition at 0.1 µM (468 kinases [7]) was 0%, the inhibition at 0.1 µM (468 kinases [11]) was 0% and the inhibition at 0.1 µM (468 kinases [13]) was 0%. The inhibition at 0.1 µM (468 kinases [15]) was 32%, the inhibition at 0.1 µM (468 kinases [30]) was 74% and the inhibition at 0.1 µM (468 kinases [16]) was 8%. It also gave an inhibition at 0.1 µM (468 kinases [18]) of 0%, an inhibition at 0.1 µM (468 kinases [19]) of 12% and an inhibition at 0.1 µM (468 kinases [20]) of 73%. For the same molecule, the inhibition at 0.1 µM (468 kinases [21]) was 59%, the inhibition at 0.1 µM (468 kinases [22]) was 21% and the inhibition at 0.1 µM (468 kinases [31]) was 0%. The inhibition at 0.1 µM (468 kinases [24]) was 0%, the inhibition at 0.1 µM (FLT1) was 42% and the inhibition at 0.1 µM [26] was 54%.
